Experimental data reported in the NIST ThermoML archive (doi:10.1021/acs.jced.7b00195).
Numbers after ± are expanded uncertainties.

Details: Gas, Burnett expansion method

CCF [fluoroethane]
Details | mass density [kg/m3]
278.38 K, 201.28 kPa | 4.281 ± 0.043
278.38 K, 432.22 kPa | 9.679 ± 0.076
278.39 K, 297.17 kPa | 6.437 ± 0.056
283.26 K, 303.56 kPa | 6.463 ± 0.055
283.26 K, 442.81 kPa | 9.718 ± 0.076
283.27 K, 205.41 kPa | 4.298 ± 0.043
288.2 K, 209.64 kPa | 4.316 ± 0.043
288.21 K, 309.96 kPa | 6.489 ± 0.055
288.21 K, 452.92 kPa | 9.758 ± 0.075
293.09 K, 213.69 kPa | 4.313 ± 0.042
293.09 K, 316.32 kPa | 6.485 ± 0.055
293.1 K, 143.41 kPa | 2.868 ± 0.035
293.1 K, 462.98 kPa | 9.751 ± 0.075
298.65 K, 323.48 kPa | 6.515 ± 0.055
298.65 K, 682.94 kPa | 14.731 ± 0.11
298.66 K, 146.61 kPa | 2.881 ± 0.035
298.66 K, 218.72 kPa | 4.333 ± 0.042
298.66 K, 474.3 kPa | 9.797 ± 0.076
303.31 K, 149.42 kPa | 2.894 ± 0.034
303.31 K, 222.77 kPa | 4.351 ± 0.042
303.31 K, 329.55 kPa | 6.543 ± 0.054
303.31 K, 697.8 kPa | 14.795 ± 0.11
303.32 K, 483.63 kPa | 9.838 ± 0.076
308.96 K, 227.65 kPa | 4.351 ± 0.041
308.96 K, 336.88 kPa | 6.542 ± 0.054
308.97 K, 494.66 kPa | 9.837 ± 0.075
308.97 K, 715.6 kPa | 14.793 ± 0.11
308.98 K, 152.32 kPa | 2.893 ± 0.034
313.8 K, 155.2 kPa | 2.907 ± 0.034
313.8 K, 343.12 kPa | 6.572 ± 0.054
313.8 K, 1036.8 kPa | 22.346 ± 0.16
313.81 K, 231.58 kPa | 4.371 ± 0.041
313.81 K, 504.31 kPa | 9.882 ± 0.075
313.81 K, 730.5 kPa | 14.86 ± 0.11
318.66 K, 513.87 kPa | 9.903 ± 0.075
318.67 K, 158.08 kPa | 2.912 ± 0.033
318.67 K, 235.35 kPa | 4.379 ± 0.041
318.67 K, 349.39 kPa | 6.585 ± 0.054
318.67 K, 745.44 kPa | 14.89 ± 0.11
318.67 K, 1060.9 kPa | 22.39 ± 0.16
323.51 K, 355.59 kPa | 6.601 ± 0.054
323.51 K, 760.32 kPa | 14.926 ± 0.11
323.51 K, 1084.6 kPa | 22.444 ± 0.16
323.52 K, 160.85 kPa | 2.919 ± 0.033
323.52 K, 239.62 kPa | 4.39 ± 0.041
323.52 K, 523.39 kPa | 9.926 ± 0.075
328.42 K, 243.93 kPa | 4.403 ± 0.04
328.42 K, 532.98 kPa | 9.955 ± 0.075
328.42 K, 775.13 kPa | 14.969 ± 0.11
328.42 K, 1108.3 kPa | 22.509 ± 0.16
328.42 K, 1539.5 kPa | 33.847 ± 0.24
328.43 K, 163.8 kPa | 2.928 ± 0.033
328.43 K, 361.91 kPa | 6.62 ± 0.054
333.29 K, 541.96 kPa | 9.995 ± 0.075
333.3 K, 248.18 kPa | 4.42 ± 0.04
333.3 K, 368.16 kPa | 6.647 ± 0.054
333.3 K, 789.86 kPa | 15.029 ± 0.11
333.3 K, 1131.5 kPa | 22.599 ± 0.16
333.31 K, 166.7 kPa | 2.94 ± 0.033
338.15 K, 252.41 kPa | 4.426 ± 0.04
338.15 K, 374.3 kPa | 6.655 ± 0.053
338.15 K, 551.38 kPa | 10.008 ± 0.075
338.15 K, 1614.5 kPa | 34.027 ± 0.24
338.16 K, 169.6 kPa | 2.943 ± 0.032
338.16 K, 804.44 kPa | 15.048 ± 0.11
338.16 K, 1154.5 kPa | 22.629 ± 0.16
343.01 K, 256.69 kPa | 4.428 ± 0.04
343.01 K, 380.56 kPa | 6.659 ± 0.053
343.01 K, 818.91 kPa | 15.056 ± 0.11
343.02 K, 560.82 kPa | 10.013 ± 0.075
343.02 K, 1177.4 kPa | 22.64 ± 0.16
343.02 K, 1651.3 kPa | 34.043 ± 0.24
343.02 K, 2227.5 kPa | 51.191 ± 0.36
343.03 K, 172.53 kPa | 2.945 ± 0.032
347.85 K, 175.51 kPa | 2.953 ± 0.032
347.85 K, 570.22 kPa | 10.041 ± 0.075
347.85 K, 833.34 kPa | 15.099 ± 0.11
347.85 K, 1687.6 kPa | 34.14 ± 0.24
347.85 K, 2287.3 kPa | 51.336 ± 0.36
347.86 K, 260.96 kPa | 4.441 ± 0.04
347.86 K, 386.83 kPa | 6.677 ± 0.053
347.86 K, 1200 kPa | 22.704 ± 0.16
352.74 K, 265.25 kPa | 4.438 ± 0.039
352.74 K, 393.24 kPa | 6.674 ± 0.053
352.74 K, 579.94 kPa | 10.036 ± 0.075
352.74 K, 1724 kPa | 34.121 ± 0.24
352.74 K, 2347.1 kPa | 51.308 ± 0.36
352.74 K, 3018.7 kPa | 77.15 ± 0.54
352.75 K, 178.77 kPa | 2.951 ± 0.032
352.75 K, 847.82 kPa | 15.09 ± 0.11
352.75 K, 1222.3 kPa | 22.691 ± 0.16
358.61 K, 248.43 kPa | 4.077 ± 0.037
358.61 K, 544.42 kPa | 9.219 ± 0.069
358.61 K, 1159 kPa | 20.845 ± 0.15
358.61 K, 1648.3 kPa | 31.345 ± 0.22
358.61 K, 2274.6 kPa | 47.133 ± 0.33
358.62 K, 368.4 kPa | 6.131 ± 0.049
358.62 K, 799.33 kPa | 13.862 ± 0.1
363.36 K, 252.39 kPa | 4.076 ± 0.037
363.36 K, 553.08 kPa | 9.217 ± 0.069
363.36 K, 2325.7 kPa | 47.122 ± 0.33
363.36 K, 3082.3 kPa | 70.859 ± 0.5
363.37 K, 374.25 kPa | 6.129 ± 0.049
363.37 K, 811.8 kPa | 13.859 ± 0.1
363.37 K, 1178.9 kPa | 20.84 ± 0.15
363.37 K, 1680 kPa | 31.337 ± 0.22
368.26 K, 256.54 kPa | 4.087 ± 0.037
368.26 K, 380.26 kPa | 6.145 ± 0.049
368.26 K, 561.93 kPa | 9.24 ± 0.069
368.26 K, 825.1 kPa | 13.895 ± 0.1
368.26 K, 1199.4 kPa | 20.894 ± 0.15
368.26 K, 1712.2 kPa | 31.418 ± 0.22
368.26 K, 2378.2 kPa | 47.243 ± 0.33
368.27 K, 3165.9 kPa | 71.038 ± 0.5
373.13 K, 838.52 kPa | 13.867 ± 0.1
373.14 K, 260.73 kPa | 4.078 ± 0.037
373.14 K, 386.27 kPa | 6.133 ± 0.049
373.14 K, 1219.8 kPa | 20.851 ± 0.15
373.14 K, 1744.1 kPa | 31.354 ± 0.22
373.14 K, 2430.1 kPa | 47.146 ± 0.33
373.14 K, 3250.9 kPa | 70.894 ± 0.5
373.14 K, 4091.8 kPa | 106.604 ± 0.75
373.15 K, 570.74 kPa | 9.221 ± 0.069
378.01 K, 264.55 kPa | 4.087 ± 0.036
378.01 K, 391.92 kPa | 6.145 ± 0.049
378.01 K, 851.98 kPa | 13.896 ± 0.1
378.01 K, 1240 kPa | 20.895 ± 0.15
378.01 K, 1776.1 kPa | 31.42 ± 0.22
378.01 K, 2481.6 kPa | 47.245 ± 0.33
378.01 K, 3335.4 kPa | 71.042 ± 0.5
378.02 K, 579.55 kPa | 9.241 ± 0.069
378.02 K, 4235.2 kPa | 106.825 ± 0.75
